# Test system: RAW264.7 cells
# Experiment: Cytokine (TNFα) response of mouse macrophage cell line; Table 2 'Murine'
# Format: cell-based
# Parameters: Maximum cytokine response Murine: unit not given here
# Settings: NR = no response
# Method: Compounds were also tested in a mouse macrophage cell line (FIG. 4B). RAW264.7 cells were subjected to increasing concentrations of the compounds and assessed for production of the cytokine TNFα.
Compound,Maximum cytokine response Murine,Minimal Effective Concentration Murine [µM]
COc1cccc(C(=O)OC[C@H]2O[C@H](O[C@H]3O[C@H](COC(=O)c4cccc(OC)c4OC)[C@@H](O)[C@H](O)[C@H]3O)[C@H](O)[C@@H](O)[C@@H]2O)c1OC [UM1013],3,37
CCc1cc(CC)cc(C(=O)OCC2OC(OC3OC(COC(=O)c4cc(CC)cc(CC)c4)C(O)C(O)C3O)C(O)C(O)C2O)c1 (stereo not shown) [UM1017],2.5,4.1
O=C(OC[C@H]1O[C@H](O[C@H]2O[C@H](COC(=O)c3ccccc3-c3ccccc3)[C@@H](O)[C@H](O)[C@H]2O)[C@H](O)[C@@H](O)[C@@H]1O)c1ccccc1-c1ccccc1 [UM1039],0.9,33
O=C(OC[C@H]1O[C@H](O[C@H]2O[C@H](COC(=O)c3cccc(-c4ccccc4)c3)[C@@H](O)[C@H](O)[C@H]2O)[C@H](O)[C@@H](O)[C@@H]1O)c1cccc(-c2ccccc2)c1 [UM1040],0.9,100
COc1ccc(C(F)(F)F)cc1C(=O)OC[C@H]1O[C@H](O[C@H]2O[C@H](COC(=O)c3cc(C(F)(F)F)ccc3OC)[C@@H](O)[C@H](O)[C@H]2O)[C@H](O)[C@@H](O)[C@@H]1O [UM1045],1.3,0.05
O=C(OC[C@H]1O[C@H](O[C@H]2O[C@H](COC(=O)c3cccc(-c4cccc(O)c4)c3)[C@@H](O)[C@H](O)[C@H]2O)[C@H](O)[C@@H](O)[C@@H]1O)c1cccc(-c2cccc(O)c2)c1 [UM1057],1.8,33
Cc1ccc(-c2cccc(C(=O)OC[C@H]3O[C@H](O[C@H]4O[C@H](COC(=O)c5cccc(-c6ccc(C)cc6)c5)[C@@H](O)[C@H](O)[C@H]4O)[C@H](O)[C@@H](O)[C@@H]3O)c2)cc1 [UM1058],2.5,33
COc1cc(-c2cccc(C(=O)OC[C@H]3O[C@H](O[C@H]4O[C@H](COC(=O)c5cccc(-c6ccc(F)c(OC)c6)c5)[C@@H](O)[C@H](O)[C@H]4O)[C@H](O)[C@@H](O)[C@@H]3O)c2)ccc1F [UM1059],1.8,33
O=C(OC[C@H]1O[C@H](O[C@H]2O[C@H](COC(=O)c3cc(O)cc(-c4ccccc4)c3)[C@@H](O)[C@H](O)[C@H]2O)[C@H](O)[C@@H](O)[C@@H]1O)c1cc(O)cc(-c2ccccc2)c1 [UM1061],3,100
O=C(OC[C@H]1O[C@H](O[C@H]2O[C@H](COC(=O)c3cccc(-c4ccccc4)c3O)[C@@H](O)[C@H](O)[C@H]2O)[C@H](O)[C@@H](O)[C@@H]1O)c1cccc(-c2ccccc2)c1O [UM1063],2.5,100
O=C(CCc1ccc(O)c(-c2ccccc2)c1)OC[C@H]1O[C@H](O[C@H]2O[C@H](COC(=O)CCc3ccc(O)c(-c4ccccc4)c3)[C@@H](O)[C@H](O)[C@H]2O)[C@H](O)[C@@H](O)[C@@H]1O [UM1064],2.5,100
COc1ccc(C(=O)OC[C@H]2O[C@H](O[C@H]3O[C@H](COC(=O)c4ccc(OC)cc4C(F)(F)F)[C@@H](O)[C@H](O)[C@H]3O)[C@H](O)[C@@H](O)[C@@H]2O)c(C(F)(F)F)c1 [UM1067],1.5,100
CN(C)c1cccc(C(=O)OC[C@H]2O[C@H](O[C@H]3O[C@H](COC(=O)c4cccc(N(C)C)c4)[C@@H](O)[C@H](O)[C@H]3O)[C@H](O)[C@@H](O)[C@@H]2O)c1 [UM1076],1.3,3.7
CCOc1cc(OCC)cc(C(=O)NC[C@H]2O[C@H](O[C@H]3O[C@H](CNC(=O)c4cc(OCC)cc(OCC)c4)[C@@H](O)[C@H](O)[C@H]3O)[C@H](O)[C@@H](O)[C@@H]2O)c1 [UM1105],11,3
CC(C)(C)c1ccc(O)c(C(=O)NC[C@H]2O[C@H](O[C@H]3O[C@H](CNC(=O)c4cc(C(C)(C)C)ccc4O)[C@@H](O)[C@H](O)[C@H]3O)[C@H](O)[C@@H](O)[C@@H]2O)c1 [UM1106],11,3
Cc1cc(C)cc(C(=O)NC[C@H]2O[C@H](O[C@H]3O[C@H](CNC(=O)c4cc(C)cc(C)c4)[C@@H](O)[C@H](O)[C@H]3O)[C@H](O)[C@@H](O)[C@@H]2O)c1 [UM1108],33,3
CCc1cc(CC)cc(C(=O)NC[C@H]2O[C@H](O[C@H]3O[C@H](CNC(=O)c4cc(CC)cc(CC)c4)[C@@H](O)[C@H](O)[C@H]3O)[C@H](O)[C@@H](O)[C@@H]2O)c1 [UM1109],0.4,3.2
O=C(NC[C@H]1O[C@H](O[C@H]2O[C@H](CNC(=O)c3ccccc3C(F)(F)F)[C@@H](O)[C@H](O)[C@H]2O)[C@H](O)[C@@H](O)[C@@H]1O)c1ccccc1C(F)(F)F [UM1112],2,100
Cc1cc(C)c(C)c(C(=O)OC[C@H]2O[C@H](O[C@H]3O[C@H](COC(=O)c4c(C)c(C)cc(C)c4C)[C@@H](O)[C@H](O)[C@H]3O)[C@H](O)[C@@H](O)[C@@H]2O)c1C [UM1113],11,2.5
Cc1cccc(C)c1C(=O)OC[C@H]1O[C@H](O[C@H]2O[C@H](COC(=O)c3c(C)cccc3C)[C@@H](O)[C@H](O)[C@H]2O)[C@H](O)[C@@H](O)[C@@H]1O [UM1114],11,2.5
Cc1cc(C)c(C(=O)OC[C@H]2O[C@H](O[C@H]3O[C@H](COC(=O)c4c(C)cc(C)cc4C)[C@@H](O)[C@H](O)[C@H]3O)[C@H](O)[C@@H](O)[C@@H]2O)c(C)c1 [UM1115],11,3.3
O=C(OC[C@H]1O[C@H](O[C@H]2O[C@H](CO)[C@@H](O)[C@H](O)[C@H]2O)[C@H](O)[C@@H](O)[C@@H]1O)c1ccc([N+](=O)[O-])cc1[N+](=O)[O-] [UM1119],11,2.2
O=C(OC[C@H]1O[C@H](O[C@H]2O[C@H](CO)[C@@H](O)[C@H](O)[C@H]2O)[C@H](O)[C@@H](O)[C@@H]1O)c1ccccc1C(F)(F)F [UM1121],11,2.5

# From patent publication US12319709B2, “Diaryl trehalose compounds and uses thereof” (THE UNIVERSITY OF MONTANA, priority 2018, dated 2025)
